Source: patent publication US8455549B2, “Carbonylamino derivatives useful for the treatment of certain inflammatory disorders” (Aniona Aps, priority 0207, dated 2013)

System: DNBS-induced distal colitis
Test: Inhibition of 2,4-Dinitrobenzenesulfonic Acid (DNBS)-induced distal colitis in rats
Assay type: in vivo, rat
Conditions: PO bid × 7, dose not specified
Method: Test substances A and B were evaluated for possible inhibition of 2,4-Dinitrobenzenesulfonic Acid (DNBS)-induced distal colitis in rats, which is a model of inflammatory bowel disease. The test compounds were soluble in a mixture of Cremophore EL, PEG400 and distilled water (10:10:80). Test substance was administered orally (PO) twice daily for 7 consecutive days. The dosing volume used was 10 ml/kg for PO. For test of Compound A groups of 10 Wistar derived male rats (BioLasco Taiwan) weighing 200±10 g were used. For test of Compound B groups of 5 Wistar derived male rats (BioLasco Taiwan) weighing 210±5 g were used. […] During the experiment, faecal occult blood and stool consistency were monitored daily. […] Also, the presence of colonic ulceration after removal and weighing of each colon (a macroscopic damage score) was recorded. […] The colon-to-body weight ratio was calculated according to the formula: (A) Colon-to-Body weight ratio (Colon weight/100 g B. W.) for each rat in respective treatment groups (vehicle blank, vehicle+DNBS, Test substance+DNBS and positive reference agent+DNBS) (B) The Net Increase of Colon weight/100 g B. W. For “vehicle+DNBS”: [(vehicle+DNBS)−(vehicle blank)] mean value of colon-to-body weight ratio For “test substance+DNBS”: [(test substance+DNBS)−(vehicle blank)] mean value of colon-to-body weight ratio (C) The percent decrease of colon weight/100 g B. Wt. […]

Structure (SMILES) | stool consistency, occult faecal blood and macroscopic damage (adhesion and ulcers) in the colon
NC(=O)C(c1ccccc1)(c1ccc(F)cc1)c1ccc(F)cc1 [Compound B, 2,2-Bis-(4-fluoro-phenyl)-2-phenyl-acetamide] | improved
CC(C)C(C(N)=O)(c1ccc(F)cc1)c1ccc(F)cc1 [Compound A, 2,2-Bis-(4-fluoro-phenyl)-3-methyl-butyramide] | improved
